# Literature values, collected in patent publication US12127968B2, “Methods and devices for controlled delivery” (Femasys Inc., priority 2018, dated 2024).
# Counter-ions that a name gives are not always drawn.
# Test system: ovulation
# Details: patients whose only factor is ovulatory dysfunction
smiles,measurement,value
CCN(CC)CCOc1ccc(C(=C(Cl)c2ccccc2)c2ccccc2)cc1 [Clomiphene citrate],patients in whom normal ovulation is restored,about 80%
